Patent US4616014A, “Triazine derivatives, and pharmaceutical compositions comprising the same” (Fujisawa Pharmaceutical Co., Ltd., priority 1981, dated 1986)
Counter-ions that a name gives are not always drawn. Like-named read-outs stand apart in the source and are kept apart here.

What was measured:
mean blood pressure = assay: Antihypertensive test in DOCA/saline hypertensive rats (Test Method A); assay type: in vivo, male Wister rats; settings: Rattus norvegicus, DOCA hypertensive rats, read-out: Effect Max (mean ratio of maximum decrease of blood pressure); for inhibition in vivo at 1 mg/kg: d: orally; for inhibition in vivo at 0.1 mg/kg: c: orally
Protocol: Five-week old male Wister rats were uninephrectomized under anesthesia. Deoxycorticosterone acetate (DOCA) (30 mg/kg), suspended in peanut oil, was injected subcutaneously twice a week and 1% saline was substituted for the drinking water. Animals with mean blood pressure 150-200 mmHg were used for experiment between 5 and 7 weeks after surgery. The test compounds were administered intraperitonealy or orally. Blood pressure was measured at the femoral artery by means of a pressure transducer and recorded as electrically integrated values of mean arterial pressure.

[1] = test system: platelet aggregation induced by adenosine diphosphate (ADP); assay: Inhibition of ADP-induced platelet aggregation in platelet rich plasma (Test Method B); assay type: cell-based, rabbit; settings: ADP (2.5 μM), 37° C., 2 min, read-out: ID50, ADP
Protocol: (§1) Platelet rich plasma (PRP) which contains 6.5-7.5×10^8 platelet/ml was prepared from rabbit blood. To the 200 μl of PRP, 5 μl of calcium chloride (1 mM) and 50 μl of pH 7.4 Tris-acetate solution (5 mM) containing 120 mM NaCl and test compound were added successively, and then stirred for 2 min. at 37° C. To the solution 5 μl of adenosine diphosphate (ADP) (2.5 μM) or collagen (2.5 μg/ml) was added as an aggregation inducer. Aggregation was measured by using an aggregometer (NKK HEMA TRACER 1).

[2] = test system: platelet aggregation induced by collagen; assay: Inhibition of collagen-induced platelet aggregation in platelet rich plasma (Test Method B); assay type: cell-based, rabbit; settings: collagen (2.5 μg/ml), 37° C., 2 min, read-out: ID50, Collagen
Protocol: as §1

[3] = rabbit PRP, pH 7.4, listed as Ex. 76, 2 min
[4] = rabbit PRP, pH 7.4, listed as Ex. 75, 2 min
[5] = Oryctolagus cuniculus, Platelet, pH 7.4, rabbit PRP

With `CC1NC(=O)NN=C1c1ccc2c(c1)CCC(=O)N2C` (single isomer, unassigned; (+)) [Example 76, (+)-5-Methyl-6-(1-methyl-2-oxo-1,2,3,4-tetrahydroquinolin-6-yl)-4,5-dihydro-1,2,4-triazin-3(2H)-one] the inhibition in vivo at 1 mg/kg (mean blood pressure; po) was 56%, the IC50 [1, 3] was 1200 nM and the IC50 [2, 3] was 360 nM.
With `CC1NC(=O)NN=C1c1ccc2c(c1)CCC(=O)N2C` (single isomer, unassigned; (-)) [Example 75, (-)-5-methyl-6-(1-methyl-2-oxo-1,2,3,4-tetrahydroquinolin-6-yl)-4,5-dihydro-1,2,4-triazin-3(2H)-one] the inhibition in vivo at 0.1 mg/kg (mean blood pressure; po) was 55%, the IC50 [1, 4] was 98 nM and the IC50 [2, 4] was 34 nM.
`CC1N=C(N2CCN(C(=O)c3ccco3)CC2)NN=C1c1ccccc1` (stereo not drawn) [4-(2), 3-[4-(2-Furoyl)-1-piperazinyl]-5-methyl-6-phenyl-2,5-dihydro-1,2,4-triazine] was tested, and the inhibition in vivo at 10 mg/kg (mean blood pressure; ip, a: intraperitonealy) was 48.9%.
With `CC1N=C(NCCO)NN=C1c1ccccc1` (stereo not drawn) [6-(2), 3-(2-Hydroxyethylamino)-5-methyl-6-phenyl-2,5-dihydro-1,2,4-triazine] the inhibition in vivo at 10 mg/kg (mean blood pressure; ip, a: intraperitonealy) was 43.1%.
With `CC1N=C(N2CCOCC2)NN=C1c1ccccc1` (stereo not drawn) [8-(2), 5-methyl-3-morpholino-6-phenyl-2,5-dihydro-1,2,4-triazine hydrochloride] the inhibition in vivo at 10 mg/kg (mean blood pressure; ip, a: intraperitonealy) was 48.9%.
`CC1N=C(N2CCCCC2)NN=C1c1ccccc1` (stereo not drawn) [10-(2), 5-Methyl-6-phenyl-3-piperidino-2,5-dihydro-1,2,4-triazine] showed an inhibition in vivo at 10 mg/kg (mean blood pressure; ip, a: intraperitonealy) of 46.5% and an inhibition in vivo at 10 mg/kg (mean blood pressure; po, b: orally) of 50%.
In the case of `CC1NC(=O)NN=C1c1ccccc1` (stereo not drawn) [36-(3), 5-methyl-6-phenyl-4,5-dihydro-1,2,4-triazin-3(2H)-one], the inhibition in vivo at 10 mg/kg (mean blood pressure; ip, a: intraperitonealy) is reported as 45.2%.
Compound `CC1NC(=O)NN=C1c1ccc(Cl)cc1` (stereo not drawn) [39-(2), 6-(4-Chlorophenyl)-5-methyl-4,5-dihydro-1,2,4-triazin-3(2H)-one] has an inhibition in vivo at 10 mg/kg (mean blood pressure; ip, a: intraperitonealy) of 57.1% and an inhibition in vivo at 10 mg/kg (mean blood pressure; po, b: orally) of 38.6%.
`CC1NC(=O)NN=C1c1ccc2c(c1)CCC(=O)N2` (stereo not drawn) [67-(3), 5-Methyl-6-(2-oxo-1,2,3,4-tetrahydroquinolin-6-yl)-4,5-dihydro-1,2,4-triazin-3(2H)-one] gave an inhibition in vivo at 0.1 mg/kg (mean blood pressure; po) of 43%, an IC50 [1, 5] of 54 nM and an IC50 [2, 5] of 18 nM.
`CCCCN1C(=O)CCc2cc(C3=NNC(=O)NC3C)ccc21` (stereo not drawn) [68-(3), 6-(1-Butyl-2-oxo-1,2,3,4-tetrahydroquinolin-6-yl)-5-methyl-4,5-dihydro-1,2,4-triazin-3(2H)-one] gave an inhibition in vivo at 1 mg/kg (mean blood pressure; po) of 62%, an IC50 [1, 5] of 140 nM and an IC50 [2, 5] of 42 nM.
`CC1N=C(NN)NN=C1c1ccc(Cl)cc1` (stereo not drawn) [Example 25-(4), 6-(4-chlorophenyl)-3-hydrazino-5-methyl-2,5-dihydro-1,2,4-triazine hydrochloride] showed an inhibition in vivo at 10 mg/kg (mean blood pressure; ip, a: intraperitonealy) of 51.7% and an inhibition in vivo at 10 mg/kg (mean blood pressure; po, b: orally) of 37.4%.
Work on `CC1NC(=O)NN=C1c1ccc(Br)cc1` (stereo not drawn) [Example 32-(3), 37-(2), 6-(4-bromophenyl)-5-methyl-4,5-dihydro-1,2,4-triazin-3(2H)-one] yielded an inhibition in vivo at 10 mg/kg (mean blood pressure; ip, a: intraperitonealy) of 61.8% and an inhibition in vivo at 10 mg/kg (mean blood pressure; po, b: orally) of 58.3%.
In the case of `CC1NC(=O)NN=C1c1ccc2c(c1)CCC(=O)N2C` (stereo not drawn) [Example 49-(3), 77-(2), 5-methyl-6-(1-methyl-2-oxo-1,2,3,4-tetrahydroquinolin-6-yl)-4,5-dihydro-1,2,4-triazin-3(2H)-one], the inhibition in vivo at 0.1 mg/kg (mean blood pressure; po) is reported as 43%, the inhibition in vivo at 1 mg/kg (mean blood pressure; po) is reported as 70% and the IC50 [1, 5] is reported as 160 nM. The IC50 [2, 5] was 110 nM.
`CC1NC(=O)N(C)N=C1c1ccc2c(c1)CCC(=O)N2C` (stereo not drawn) [Example 71, 2,5-Dimethyl-6-(1-methyl-2-oxo-1,2,3,4-tetrahydroquinolin-6-yl)-4,5-dihydro-1,2,4-triazin-3(2H)-one] was tested, and the IC50 [1, 5] was 9800 nM and the IC50 [2, 5] was 17000 nM.
